The data set is described as follows: Drug delivery profile: diffusion of loaded drug from foam-film composite to wetted receptor foam piece, HPLC. It counts as physicochemical. Particulars: 1x1 cm composite loaded with 100 μL of 261.5 mg/mL solution; on wetted 2x2 cm foam piece; 10 minutes, 37° C. The procedure: • A foam-film composite made using the process outlined in example 3 was used to evaluate the drug delivery profile of said composite after drug loading. This was done by loading a dry 1×1 cm piece of the composite foam-film with 100 μL of our 261.5 mg/mL solution of dexamethasone disodium phosphate in nanopure water. This piece was then placed on top of a wetted 2×2 cm piece without the flexible film. These two pieces were left in contact for a period of 10 minutes at 37° C. After […] the pieces were separated and the receptor (bottom) piece was placed into a vial. At this point 5 mL of water was added to the vial and the piece was shaken in this new volume of water for 10 minutes. The aqueous layer was then filtered through a 0.45 μm filter and run on a reverse phase HPLC. Using a C18 column and a 12 minute gradient method of water and acetonitrile, it was determined that about 12 mg or about 45% of the loaded DSP diffused to the receptor (bottom) piece.

Data on one compound can be found in patent publication US9028860B2, “Partially microcellular, selectively hydrophilic composite construct for ocular drug delivery” (Poly-Med, Inc., priority 2010, dated 2015).

On to `C[C@@H]1C[C@H]2[C@@H]3CCC4=CC(=O)C=C[C@]4(C)[C@@]3(F)[C@@H](O)C[C@]2(C)[C@@]1(O)C(=O)COP(=O)([O-])[O-].[Na+].[Na+]` [DSP, dexamethasone disodium phosphate], for which the “amount of DSP diffused to the receptor (bottom) piece” value is given as “about 12 mg” and the “percent of the loaded DSP diffused to the receptor (bottom) piece” value is “about 45%”.
